This note sets out measurements from ChEMBL document CHEMBL1121801, “Salicylamide derivatives related to medroxalol with alpha- and beta-adrenergic antagonist and antihypertension activity” (J Med Chem, 1981).

In assay [1] the target is T1, Adrenergic receptor alpha-1 (Homo sapiens, UniProt P35348+P25100+P35368).
T1 sequence (P35348 whole entry): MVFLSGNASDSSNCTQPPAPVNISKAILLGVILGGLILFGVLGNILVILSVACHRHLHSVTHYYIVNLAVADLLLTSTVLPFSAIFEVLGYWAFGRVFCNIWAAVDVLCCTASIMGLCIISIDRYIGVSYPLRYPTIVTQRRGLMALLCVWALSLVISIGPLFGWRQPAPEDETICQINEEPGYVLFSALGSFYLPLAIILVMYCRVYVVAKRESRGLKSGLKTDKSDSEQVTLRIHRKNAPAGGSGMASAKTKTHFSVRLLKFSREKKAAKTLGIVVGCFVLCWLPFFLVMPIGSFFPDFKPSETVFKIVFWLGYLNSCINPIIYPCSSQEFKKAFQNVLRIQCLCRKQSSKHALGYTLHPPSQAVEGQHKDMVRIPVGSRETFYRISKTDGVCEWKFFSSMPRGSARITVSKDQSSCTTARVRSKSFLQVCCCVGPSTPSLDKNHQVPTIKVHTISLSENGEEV
T1 sequence (P25100 whole entry): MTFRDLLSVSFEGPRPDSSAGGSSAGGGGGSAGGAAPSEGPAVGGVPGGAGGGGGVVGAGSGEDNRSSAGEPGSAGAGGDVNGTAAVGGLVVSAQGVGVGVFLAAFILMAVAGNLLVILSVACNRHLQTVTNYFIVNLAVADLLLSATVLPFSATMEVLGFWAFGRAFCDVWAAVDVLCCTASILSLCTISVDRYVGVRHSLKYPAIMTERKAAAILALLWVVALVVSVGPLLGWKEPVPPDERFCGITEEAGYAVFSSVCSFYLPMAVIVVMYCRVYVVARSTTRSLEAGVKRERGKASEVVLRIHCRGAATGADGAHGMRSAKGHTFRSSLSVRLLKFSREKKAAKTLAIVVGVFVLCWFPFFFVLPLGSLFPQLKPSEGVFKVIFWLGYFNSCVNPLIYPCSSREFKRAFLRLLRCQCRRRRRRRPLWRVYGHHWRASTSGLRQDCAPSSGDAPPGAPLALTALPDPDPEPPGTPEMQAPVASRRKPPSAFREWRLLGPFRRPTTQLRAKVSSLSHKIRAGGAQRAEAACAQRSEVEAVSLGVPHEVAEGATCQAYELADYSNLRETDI
T1 sequence (P35368 whole entry): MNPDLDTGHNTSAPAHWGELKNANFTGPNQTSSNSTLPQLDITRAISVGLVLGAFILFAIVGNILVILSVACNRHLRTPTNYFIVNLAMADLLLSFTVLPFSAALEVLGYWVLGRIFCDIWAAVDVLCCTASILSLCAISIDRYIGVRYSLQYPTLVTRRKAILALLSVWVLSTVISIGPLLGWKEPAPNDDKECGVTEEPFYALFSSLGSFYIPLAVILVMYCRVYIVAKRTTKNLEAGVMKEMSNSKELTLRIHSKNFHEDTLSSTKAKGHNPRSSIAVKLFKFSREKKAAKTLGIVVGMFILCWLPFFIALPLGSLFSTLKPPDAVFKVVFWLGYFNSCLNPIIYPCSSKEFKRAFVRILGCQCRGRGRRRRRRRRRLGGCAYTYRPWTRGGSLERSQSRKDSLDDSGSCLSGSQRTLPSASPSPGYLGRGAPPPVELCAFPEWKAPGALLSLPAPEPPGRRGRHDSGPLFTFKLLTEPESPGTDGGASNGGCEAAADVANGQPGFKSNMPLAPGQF
Nature of the assay: In vitro blocking activity against alpha adrenergic receptor, isolated from rabbit aortic strip. Type of assay: protein assay, Oryctolagus cuniculus.

The target in assay [2] is T2, Adrenergic receptor beta (Homo sapiens, UniProt P08588+P07550+P13945). The assay is described as follows: In vitro blocking activity against beta adrenergic receptor, isolated from guinea pig atria. Type of assay: protein assay.
The species named for another assay is Cavia porcellus. Nature of the assay: spasmolytic activity in isolated guinea pig ileum preparation;- log KB; (Bacl2). Type of assay: functional, organism-based. Particulars: read-out: pA2 (converted).
In assay [3] the test system is Rattus norvegicus. Nature of the assay: Compound was tested for antihypertensive activity in spontaneously hypertensive rats(SHR)at 50 mg/kg (po) dose after 1 h. The format is functional.
The test system of assay [4] is Rattus norvegicus. Nature of the assay: Compound was tested for antihypertensive activity n spontaneously hypertensive rats(SHR),at 50 mg/kg (po) dose after 4 h. The format is functional.
Assay [5] concerns the target T2, Adrenergic receptor beta. The assay is described as follows: (§1) Ratio of pA2 for beta-adrenergic receptor to that of alpha-adrenergic receptor. The format is protein assay. As to conditions: Cavia porcellus.
The test system of assay [6] is Rattus norvegicus. The assay is described as follows: Antihypertensive activity in spontaneously hypertensive rats(SHR) at 50 mg/kg peroral dose after 1 h, expressed as decrease in systolic blood pressure. Type of assay: functional, Artery. Particulars: route oral.
Assay [7] concerns Rattus norvegicus. Nature of the assay: Antihypertensive activity in spontaneously hypertensive rats(SHR) at 50 mg/kg peroral dose after 4 h, expressed as decrease in systolic blood pressure. Type of assay: functional, Artery. Particulars: route oral.
Assay [8] has as its target Beta-1 adrenergic receptor (Homo sapiens) (UniProt P08588). As to conditions: Canis lupus familiaris.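 Note: anesthetized dogs dosed intravenously, sympatholytic action measured as inhibition of the chronotropic response to isoproterenol.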
Description: In vivo sympatholytic activity (isoproterenol-induced chronotropy) at beta 1-adrenergic receptor in anesthetized dog, iv
In assay [9] the target is Beta-2 adrenergic receptor (Canis lupus familiaris) (UniProt P54833).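 Note: Beta-2 blockade of isoproterenol-induced vasodepression in anesthetized dogs, given intravenously.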
Beta-2 adrenergic receptor (Canis lupus familiaris), sequence (P54833 whole entry, looked up): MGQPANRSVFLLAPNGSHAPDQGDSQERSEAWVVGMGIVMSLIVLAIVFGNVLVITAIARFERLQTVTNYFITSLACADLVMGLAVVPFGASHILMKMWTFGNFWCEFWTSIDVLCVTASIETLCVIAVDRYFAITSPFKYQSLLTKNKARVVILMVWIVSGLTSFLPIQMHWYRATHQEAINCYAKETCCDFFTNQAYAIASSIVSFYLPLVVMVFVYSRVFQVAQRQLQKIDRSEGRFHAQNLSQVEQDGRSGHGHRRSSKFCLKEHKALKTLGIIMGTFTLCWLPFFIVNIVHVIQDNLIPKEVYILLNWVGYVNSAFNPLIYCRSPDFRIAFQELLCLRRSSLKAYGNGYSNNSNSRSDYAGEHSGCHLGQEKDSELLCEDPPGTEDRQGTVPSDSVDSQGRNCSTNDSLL
Description: In vivo sympatholytic activity (isoproterenol-induced vasodepression) at beta 2-adrenergic receptor in anesthetized dog, iv
The target of assay [10] is Adrenergic receptor alpha (Homo sapiens) (UniProt P35348+P08913+P18825+P25100+P35368+P18089). As to conditions: Canis lupus familiaris.
Description: In vivo sympatholytic activity (phenylephrine-induced vasopressor response) at alpha-adrenergic receptor in anesthetized dog, iv
Assay [11] deals with T1, Adrenergic receptor alpha-1. The assay is described as follows: Compound was tested in vitro for Alpha adrenergic receptor blocking activity in the isolated rabbit aortic strip preparation; - log KB. As to conditions: target entry is the homologue from another species. Details: species or system Oryctolagus cuniculus.
The species named for a further assay is Oryctolagus cuniculus. The description is as §1.

Beta-1 adrenergic receptor (Homo sapiens), sequence (P08588 whole entry, looked up): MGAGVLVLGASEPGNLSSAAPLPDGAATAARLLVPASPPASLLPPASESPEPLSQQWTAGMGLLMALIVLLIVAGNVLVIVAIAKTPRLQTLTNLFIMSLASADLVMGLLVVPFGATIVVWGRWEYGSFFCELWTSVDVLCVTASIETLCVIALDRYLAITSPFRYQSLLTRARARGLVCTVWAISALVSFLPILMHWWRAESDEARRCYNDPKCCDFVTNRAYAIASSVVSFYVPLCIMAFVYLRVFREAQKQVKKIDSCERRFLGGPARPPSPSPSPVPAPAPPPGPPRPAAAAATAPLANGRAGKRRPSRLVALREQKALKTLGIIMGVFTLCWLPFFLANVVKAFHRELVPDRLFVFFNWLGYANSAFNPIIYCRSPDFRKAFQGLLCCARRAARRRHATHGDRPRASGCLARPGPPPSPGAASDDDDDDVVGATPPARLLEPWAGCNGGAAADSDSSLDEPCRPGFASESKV

For `CCCCCCCCCCCCNC(=O)c1cc(C(O)CNC(C)CCc2ccc3c(c2)OCO3)ccc1O.Cl` (stereo not drawn), the pA2 in assay [1] is less than 5; on Adrenergic receptor beta [2] it was 4.53. Further, the Kb in the assay listed under Cavia porcellus is less than 63.1 µM. Also, the BP decrease came out at 16 mmHg in the assay with Rattus norvegicus [3] and 18 mmHg with Rattus norvegicus [4].
Regarding `CC(C)NC(=O)c1cc(C(O)CNC(C)CCc2ccc3c(c2)OCO3)ccc1O.Cl` (stereo not drawn), the pA2 was determined as 5.85 in [1] and 5.88 at Adrenergic receptor beta [2]. The Ratio at Adrenergic receptor beta [5] came out at 1.1. In addition, the Kb in the assay listed under Cavia porcellus was 0.417 µM. Also, the BP decrease with Rattus norvegicus [6] is recorded as 48 mmHg; in the assay on Rattus norvegicus [7], 10 mmHg. In addition, the DR10 in assay [8] was 22.5 mg/kg; in assay [9], 14.8 mg/kg; in assay [10] it was 4.84 mg/kg.
As to `CC(CCc1ccc2c(c1)OCO2)NCC(O)c1ccc(O)c(C(N)=O)c1.Cl` (stereo not drawn) [MEDROXALOL HYDROCHLORIDE], the pA2 came out at 6.08 in assay [11] and 7.82 on Adrenergic receptor beta [2]. The Ratio in the assay listed under Oryctolagus cuniculus amounted to 55. Moreover, in the assay listed under Cavia porcellus, the Kb is 2.34 µM. Besides, the BP decrease is 88 mmHg in the assay on Rattus norvegicus [6] and 90 mmHg in the assay with Rattus norvegicus [7]. Further, the DR10 in [8] is 0.84 mg/kg; in assay [9], 1.17 mg/kg; in assay [10], 3.86 mg/kg.
As to `Cc1ccc(N(CC2=NCCN2)c2cccc(O)c2)cc1.Cl` [PHENTOLAMINE HYDROCHLORIDE], the BP decrease in the assay on Rattus norvegicus [3] came to 62 mmHg; with Rattus norvegicus [4] it was 60 mmHg.
Consider `CC(CCc1ccc2c(c1)OCO2)NCC(O)c1ccc(O)c(C(=O)NCC(C)(C)C)c1.Cl` (stereo not drawn), for which the pA2 was 6.05 in assay [1] and 5.88 at Adrenergic receptor beta [2]. The Ratio in the assay filed under Oryctolagus cuniculus amounted to 0.8. Further, the Kb in the assay filed under Cavia porcellus is 0.126 µM. For the same molecule, the BP decrease in the assay with Rattus norvegicus [6] is 55 mmHg; in the assay with Rattus norvegicus [7] it was 24 mmHg. Further, the DR10 in assay [8] is more than 10 mg/kg; in assay [9], more than 10 mg/kg; in assay [10] it was 6.6 mg/kg.
For `CNC(=O)c1cc(C(O)CNC(C)CCc2ccc3c(c2)OCO3)ccc1O.Cl` (stereo not drawn), the pA2 was found to be 5.9 in [1] and 6.69 on Adrenergic receptor beta [2]. Further, the Ratio in the assay filed under Oryctolagus cuniculus stood at 6.2. In the assay listed under Cavia porcellus, the Kb was 0.38 µM. Besides, the results for the BP decrease in the assay with Rattus norvegicus [6] and with Rattus norvegicus [7] were 84 mmHg and 91 mmHg, respectively. Also, the DR10 in assay [8] worked out at 8.63 mg/kg; in assay [9], 3.61 mg/kg; in assay [10], 5.44 mg/kg.

In general, pA2 refers to the negative logarithm of the molar antagonist concentration that doubles the agonist concentration needed for the same response. A lower pA2 goes with lower antagonist potency.
